According to article PMC4211885 (PLoS ONE, 2014):
“Also recorded” adds a separate entry of the source.

Assays:
OA/TAMac receptor = OA/TAMac receptor (Macrobrachium rosenbergii, UniProt D9U2B9); experiment: Modulation of the transient calcium-dependent chloride current ICl-T in OA/TAMac-injected oocytes (voltage step protocol); type: cell-based; settings: for Effect on ICl-T at lower concentration: 1 µM and 100 µM, 8 minute applications, n = 5 at each concentration; for Effect on ICl-T during prolonged application: 1 mM (high concentration), n = 4 oocytes
Source text: The fluctuations in holding current that we refer to as ID have often been referred to as the calcium-dependent chloride current. These currents are in fact complex and are known to contain multiple poorly defined components that arise from a number of unidentified potassium, chloride and mixed cationic channels, [47]. For this reason, we tested the effect of tyramine and octopamine on one of the better characterized components, the transient calcium-dependent chloride current that we refer to as ICl-T after. This current, which has been referred to as Iout, [54], ICl-2 [55] or ICl1-T [53], can be clearly isolated from ID using a specific pulse protocol (Fig. 6A). Furthermore, ICl-T is known to increase in response to inositol 1,4,5-triphosphate (IP3) injection, [55]. Modulation of this current therefore provides additional insight into how IP3 related pathways might be affected by transmitter application.
Figure 6 Differential modulation of a transient chloride current by tyramine (TA) and octopamine (OA). ICl-T is an endogenous calcium-dependent transient chloride current coupled to extra-celluar calcium influx. It is thought to arise from a single type of channel. […] (A) The voltage command protocol used to measure ICl-T is shown with an example current. The first step to +40 mV from the holding potential of −20 mV evokes no ICl-T and provides the baseline. The hyperpolarizing step to −140 mV induces calcium influx that causes ICl-T to appear during the second step to +40 mV [53]. The amplitude of ICl-T was measured as the difference between the first step and the peak of the transient current evoked by the second. (B) Measurements of ICl-T were taken every minute during the ID evoked by long applications of 1 mM TA and 1 mM OA. The vertical lines are the currents evoked by the voltage command pulse used to measure ICl-T (as shown in A). Their true amplitude was clipped from the image during figure preparation. Below the trace individual ICl-T transients are shown. Δ ICl-T is the difference in amplitude of these transients measured at different time points. The amplitude of ICl-T increases during continuous TA application and decreases during continuous OA application. There was a 38 minute washout period between the TA and OA applications. […]
ICl-T was measured under two-electrode voltage-clamp by hyperpolarizing the oocyte to −140 mV after a step to +40 mV and stepping back to +40 mV (Fig. 6A). […] ICl-T is measured instead of Icat because ICl-T is a pure chloride conductance that likely arises from one ion channel population while Icat is complex arising from more than one conductance.
We monitored ICl-T over the course of extended transmitter applications using the described pulse protocol. […]

[1] = system: CFTR conductance (intracellular cAMP); experiment: cAMP detection by whole oocyte (CFTR) conductance in oocytes co-expressing CFTR and OA/TAMac; type: cell-based, Xenopus laevis; settings: for Increase in cAMP levels (CFTR conductance): OA and TA at 100 µM or 1000 µM
Source text: It is also unlikely that the effects of tyramine at high concentration result from an increase in cAMP. It is common that octopaminergic GPCRs can couple through the canonical Gαs/cAMP pathway so we used co-expression of the Cystic Fibrosis Trans-membrane Conductance Regulator (CFTR) as a means of testing for increases in cAMP (see methods for more detail) [60]–[63].
As a means of detecting rises in intracellular cAMP levels we tested oocytes co-expressing the CFTR channel and OA/TAMac. Heterologously expressed CFTR can be used as an extremely sensitive assay for intracellular cAMP in Xenopus oocytes. CFTR mediates a chloride-selective leak conductance that is activated by increases in intracellular cAMP [63]. Activity of CFTR can thus be used to indicate whether changes in cAMP correspond with ligand application [60]–[62]. Whole oocyte conductance was monitored using a step protocol and calculated from I/V plots. The command voltage was stepped from the holding potential to various levels (−10 mV to −55 mV in −5 mV increments) for 150 ms. The steady state current during each step was plotted against the command voltage and fit to a line using Clampfit 10 software (Fig. S7A). The slope of the line was taken as the conductance. To minimize the magnitude of the holding current between drug applications, oocytes expressing CFTR were typically held at −20 mV which is close to the typical chloride reversal potential. This was confirmed by the fact that the direct-current evoked by forskolin could appear inward or outward at −20 mV. Oocytes expressing either OA/TAMac alone or OA/TAMac and CFTR typically had resting membrane potentials between −20 mV and −30 mV (mean of −26±5 mV calculated from oocytes in Fig. S7) due to increased expression of endogenous chloride currents.
(A) The measurement of whole oocyte conductance was done by plotting steady state current against the command voltage recorded during a step protocol. It is defined as the slope (I/V) of the linear least squares regression line. In the example shown tyramine (TA) causes no apparent change in whole oocyte conductance. Octopamine (OA) causes a small change compared to the adenylate cyclase activator forskolin (FSK). […] These cumulative data are from 20 OA/TAMac and CFTR-injected oocytes and 6 OA/TAMac -only injected oocytes. Conductance was measured as shown in A. Not all compounds were tested in all oocytes. Each response is treated as an independent sample. Concentrations of OA and TA were at 100 µM or 1000 µM, FSK was at 50 µM. Some points obtained at 3 minutes were grouped with the 4 minute responses. (C) The change in conductance (Δg) occurring within oocytes as determined by the difference between baseline and the indicated time points post-application of compound. […]

Chain of OA/TAMac receptor (D9U2B9 entry or part of it): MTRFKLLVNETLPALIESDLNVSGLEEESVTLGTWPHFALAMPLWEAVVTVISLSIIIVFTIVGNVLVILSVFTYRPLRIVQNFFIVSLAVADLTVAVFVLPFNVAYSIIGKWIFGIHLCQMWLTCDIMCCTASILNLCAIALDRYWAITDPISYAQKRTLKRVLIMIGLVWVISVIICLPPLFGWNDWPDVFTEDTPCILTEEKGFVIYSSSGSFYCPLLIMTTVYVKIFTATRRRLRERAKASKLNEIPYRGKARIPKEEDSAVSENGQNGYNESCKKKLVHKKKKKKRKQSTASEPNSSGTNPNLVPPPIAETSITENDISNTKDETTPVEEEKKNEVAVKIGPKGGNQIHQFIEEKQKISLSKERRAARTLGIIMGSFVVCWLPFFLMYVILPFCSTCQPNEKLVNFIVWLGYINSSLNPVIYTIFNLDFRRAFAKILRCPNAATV

Row | Structure (SMILES) | Effect on ICl-T at lower concentration (OA/TAMac receptor) | Effect on ICl-T during prolonged application (OA/TAMac receptor) | Increase in cAMP levels (CFTR conductance) [1] | Mean change in conductance (Δg) within oocytes ([1]; compiled from 12 oocytes, s.d. = 1.72 µS, high conductance outlier excluded)
1 | NCC(O)c1ccc(O)cc1 (racemic) [octopamine, (+/−)-octopamine] | no apparent effect | reversibly decreases; also recorded: decreased | neither octopamine nor tyramine produced significant increases | 
2 | NCCc1ccc(O)cc1 [tyramine] | increase | reversibly increases; also recorded: increased | neither octopamine nor tyramine produced significant increases | 0.30 µS
